Assay results published in paper PMC8200345 (American Journal of Clinical Dermatology, 2021).
Like-named read-outs stand apart in the source and are kept apart here.

Experiments:
[1] = phase III studies combined
[2] = cited from earlier work
[3] = Phase II study; format: in vivo, human (adult patients with atopic dermatitis); conditions: Phase II SLR (QD only); log-transformed Ctrough week 4 vs API dose
[4] = human, in vivo
[5] = any of the three studies in atopic dermatitis
[6] = cited from earlier work; remark: listed apart in the source

## N#CC[C@H](C1CCCC1)n1cc(-c2ncnc3[nH]ccc23)cn1 [ruxolitinib]
[1]
  Correlation between ruxolitinib Css quartiles and absolute neutrophil count: no correlation
[2]; 25 mg BID oral
  Average Css: ~ 350 nM
[2]; oral, patients with myelofibrosis
  Maximum tolerated dose: 25 mg BID
[3]
  Dose-PK model: exponent on API dose (regression slope), estimate: 0.805
[4]
  Dose-PK model: exponent on API dose (regression slope), estimate: 0.801
  Dose-PK model: exponent on API dose, estimate: 0.462
  Dose-PK model: exponent on baseline IGA 3, estimate: 0.322
  Dose-PK model: exponent on region = Europe, estimate: 0.782
  Mean Css as percent of the whole blood IC50 value: < 15%
[5]
  Changes in hematological parameters: no clinically relevant changes
[6]
  Bioavailability after oral dosing: near-complete
